This is an account of results in ChEMBL document CHEMBL5729081, “Morpholine derivative” (2022).

In the data set the target is hERG (KCNH2) potassium channel (Homo sapiens, UniProt Q12809). As to the kind of experiment: For electrophysiological measurements cells were seeded onto 35 mm sterile culture dishes containing 2 ml culture medium without Hygromycin B. Cells were cultivated at a density that enabled single cells (without visible connections to neighbouring cells) to be measured. […] The cells were continuously maintained in and passaged in sterile culture flasks containing nutrient mixture F-12 (DMEM/F-12 with L-Glutamine) supplemented with 10% foetal bovine serum and 10% penicillin/streptomycin solution. […] The 35 mm culture dishes upon which cells were seeded at a density allowing single cells to be recorded were placed on the dish holder of the microscope and continuously perfused (at approximately 1 ml/min) with the bath solution (sodium chloride 150 mM, potassium chloride 4 mM, calcium chloride 1.2 mM, magnesium chloride 1 mM, HEPES 10 mM, pH (NaOH) 7.4) at near physiological temperature (36±1° C.). After formation of a Gigaohm seal between the patch electrodes and individual hERG stably transfected CHO cells (pipette resistance range: 2.0 MΩ-7.0 MΩ; seal resistance range: >1 GΩ) the cell membrane across the pipette tip was ruptured to assure electrical access to the cell interior (whole-cell patch-configuration). In case the quality of the seal was poor, the process of seal formation was repeated with a different cell and a new pipette. […] […]. The data set is classed as cell-based. The conditions noted are these: CHO cells stably expressing the hERG channel, pH 7.4.
Chain of hERG (KCNH2) potassium channel (Q12809 whole entry, the tested form may be a part): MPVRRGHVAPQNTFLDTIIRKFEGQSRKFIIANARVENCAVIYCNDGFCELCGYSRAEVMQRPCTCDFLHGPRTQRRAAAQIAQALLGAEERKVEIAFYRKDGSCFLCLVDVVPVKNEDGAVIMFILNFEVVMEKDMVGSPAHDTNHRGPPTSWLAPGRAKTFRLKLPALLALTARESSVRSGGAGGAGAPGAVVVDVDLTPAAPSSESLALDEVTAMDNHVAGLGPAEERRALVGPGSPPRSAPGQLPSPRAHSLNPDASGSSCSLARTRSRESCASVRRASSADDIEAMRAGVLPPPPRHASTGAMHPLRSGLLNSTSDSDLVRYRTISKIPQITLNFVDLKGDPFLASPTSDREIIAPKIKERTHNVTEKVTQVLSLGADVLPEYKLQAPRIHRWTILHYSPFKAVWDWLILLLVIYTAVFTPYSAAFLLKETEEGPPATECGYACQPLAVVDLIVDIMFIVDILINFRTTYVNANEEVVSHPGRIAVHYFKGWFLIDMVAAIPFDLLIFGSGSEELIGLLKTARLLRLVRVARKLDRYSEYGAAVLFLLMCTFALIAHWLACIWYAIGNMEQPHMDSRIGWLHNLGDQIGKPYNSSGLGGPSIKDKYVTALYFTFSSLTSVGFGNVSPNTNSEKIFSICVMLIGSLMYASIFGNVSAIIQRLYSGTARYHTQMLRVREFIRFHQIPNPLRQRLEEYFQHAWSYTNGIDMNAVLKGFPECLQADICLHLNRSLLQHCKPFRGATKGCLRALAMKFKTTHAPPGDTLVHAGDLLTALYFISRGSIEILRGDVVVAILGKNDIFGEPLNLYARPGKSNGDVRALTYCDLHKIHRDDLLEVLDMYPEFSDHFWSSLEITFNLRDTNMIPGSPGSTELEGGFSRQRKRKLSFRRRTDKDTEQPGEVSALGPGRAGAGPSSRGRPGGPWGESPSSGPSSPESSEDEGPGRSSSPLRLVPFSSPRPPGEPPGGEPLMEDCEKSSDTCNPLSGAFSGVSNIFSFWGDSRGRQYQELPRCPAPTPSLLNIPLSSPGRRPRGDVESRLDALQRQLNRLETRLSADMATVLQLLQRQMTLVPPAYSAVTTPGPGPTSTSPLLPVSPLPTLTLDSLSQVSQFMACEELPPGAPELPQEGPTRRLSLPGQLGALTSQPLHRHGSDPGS

A word on the IC50: it is the concentration that gives 50% inhibition. Consider `O=C(Nc1ccc([C@H]2CNCCO2)cc1)c1ccc(Cl)nc1`, for which the IC50 stood at 14.3 µM.
